US5661177A, “Zinc cysteate its preparation and uses in pharmacy and cosmetology” (Chimie et Biologie, priority 1988, dated 1997)
“Also recorded” adds a separate entry of the source. Like-named read-outs stand apart in the source and are kept apart here.

Key:
skin of Guinea Pig [1] = settings: TABLE I, cited from earlier work
[2] = system: lipidic synthesis of the sebaceous gland; assay: In vitro antiseborrheic properties (14C-acetate incorporation, prepucial gland of the rat); format: cell-based
Procedure: In vitro antiseborrheic properties of CB 619
According to the experiment, the lipidic metabolic activity of the prepucial gland of the rat was evaluated. The lipidic synthesis of the sebaceous gland was evaluated by adding, as marked precursor, sodium ^14 C-acetate.
CB 619 was tested in comparison with carboxymethylcysteine (CMC) as a reference.

pH of aqueous solution = format: physicochemical; settings: 6% solution in water
Pityrosporum ovale 1363 [3] = assay: Antifungic test, discs method (inhibition diameter); format: cell-based; settings: 72 hours at 37° C.
Procedure: (§1) CB 619 was tested against Pityrosporum orbiculare 1219 and Pityrosporum ovale 1363, both from the Pasteur Institute, in the Dixon's culture medium, modified by Randjandiche according to the following composition:
(§2) 30 ml of culture medium were cast in each Petri dish of 90 mm of diameter.
(§3) The inoculum was a 2 ml suspension of Pityrosporum containing 10,000,000 germs, 72 hours old, per ml.
(§4) After drying at 37° C., tests were carried out according to discs method or to cylinders method.
(§5) According to the discs method, discs of 6 mm of Antibiotica-Testblattchen Schleider & Schull, reference 2668/2, are soaked in test solution, then set down onto the seeded medium.
(§6) According to both methods, the inhibition areas were measured after a time of incubation of 72 hours at 37° C.
(§7) According to the discs method, Intrinsic Inhibition Power of CB 619 is, the inhibition diameter being given in mm: […]

[4] = system: Pityrosporum orbiculare 1219; assay: as above; format: cell-based; settings: 72 hours at 37° C.
Procedure: as §1, §2, §3, §4, §5, §6, §7

[5] = system: wound made by loss of substance; assay: Cicatrizing activity in the rat (area of wound); format: in vivo
From the text: Cicatrizing activity of CB 619 in the rat
The experiment was to calculate the area of the wound made by loss of substance.

Pityrosporum ovale 1363 [6] = assay: Antifungic test, cylinders method (inhibition diameter); format: cell-based; settings: 72 hours at 37° C.
Procedure: (§8) CB 619 was tested against Pityrosporum orbiculare 1219 and Pityrosporum ovale 1363, both from the Pasteur Institute, in the Dixon's culture medium, modified by Randjandiche according to the following composition: 30 ml of culture medium were cast in each Petri dish of 90 mm of diameter. The inoculum was a 2 ml suspension of Pityrosporum containing 10,000,000 germs, 72 hours old, per ml. After drying at 37° C., tests were carried out according to discs method or to cylinders method. According to cylinders method, cylinders of 4 mm of diameter were excavated in gelose with a stainless steel tool, and 75 microliters of the solution of the tested product were introduced into each cylinder. According to both methods, the inhibition areas were measured after a time of incubation of 72 hours at 37° C. According to cylinders method, Intrinsic Inhibition Power of CB 619 is, the inhibition diameter being given in mm: […]

[7] = system: Pityrosporum orbiculare 1219; assay: as above; format: cell-based; settings: 72 hours at 37° C.
Procedure: as §8

Mouse = assay: Acute toxicity in the Mouse (LD 50); format: in vivo; settings: for LD 50: male and female mice, 14 days, Miller and Tainter method
Procedure: Acute toxicity of CB 619 in the Mouse
The lethal dosis 50% (LD 50) of CB 619 were evaluated when dissolved in bidistilled water and administered by 0.2 to 0.3 ml/kg volumes, monitoring the effect during 14 days.

skin of Guinea Pig [8] = settings: in vivo
From the text: The experiment was made according to the technical sheet No. 44 (J. Pharmacol. Paris, 1978, 9, 1, 103-6) which conforms to the Magnusson and Kligmann technique.
This sensibilization test according to Magnusson and Kligmann is described in detail in annex 3.
This test is designed to create a delayed allergic reaction in the guinea pig.
Female albino Hartley-breed guinea pigs weighing between 300 and 500 grams.
For the intradermic tract, the product is placed in solution or suspension in bidistilled water, or a suitable solvent. Intradermic injections of 0.1 ml are given in the preliminarily sheared and shaved dorsal region of four albino guinea pigs in increased concentrations. […] The reading of possible reactions takes place after 24 hours. […] If this is not the case, the scale utilized will depend on the maximum non-irritating concentration (MNIC), whose determination may require a second series of tests with concentrations to be determined in accordance with the results of the first.
The same procedures are used for the external cutaneous tract, with the product being placed, in certain cases, in suspension or solution in vaseline. […] Readings are taken one hour following removal of the pads. […]
Readings of local reactions take place 24 and 48 hours following removal of the pad. […]

eye = settings: rabbit, in vivo
From the text: The experiment was made according to the recommendations of the French "Arrete Ministeriel" of the 21 February 1984 which specifies the official method to determinate the eye irritation (E.I.).
The present method is utilized so as to evaluate the kind and degree of irritation brought about in the eyes by the use of a cosmetic or bodily hygiene product.
The method is based on observation of ocular reaction provoked by the sole instillation of the product.
Directly apply the product in the conjunctival pouch of one of the eyes in the following doses:
Observe the eye of the rabbits one hour, and then 1, 2, 3, 4 and 7 days following the instillation, utilizing the non-instilled eye as a control in order to evaluate possible irritation in the treated eye.
Add up the scores gathered for each of the six rabbits as of each time of observation. One thereby obtains the index of individual ocular irritation: I.O.I.
At each time of observation calculate the average individual ocular irriatation for the six rabbits. One thereby obtains the index of mean ocular irritation: O.I.
Note among the six ocular irritation scores the one with the highest value. One thereby obtains the index of maximum ocular irritation: M.O.I. The time it takes for the latter to appear will be specified in the minutes or report of the experiment.
In an initial approximation, the product is classified in one of the six categories in accordance with the maximum ocular irritation scores.
In a second evaluation, the persistence of lesions intervenes as a corrective of the preceding classification; the ocular irritation and individual ocular irritation scores at different times are taken into account:

skin = settings: rabbit, in vivo
From the text: Skin irritation index of CB 619 in the Rabbit
The experiment was made according to the French "Arrete Ministeriel" of the 21th of February 1982 which specifies the official method for the determination Of the skin primary irritation index (SPI).
The official method for the determination of the index of primary cutaneous irritation is described in detail in Annex 1.
The present method is utilized so as to determine the index of primary cutaneous irritation for a cosmetic or bodily hygiene product.
This method is based on the observation of cutaneous reactions provoked through the sole application of the principle.
4.1. Male albino rabbits of defined breed, weighing around 2.5 kg. So as to be perfectly acclimated, the animals must be kept in individual cages for one week prior to the experiment, and; must receive food of invariably balanced composition.
5.1.1. The day before application of the product, shear the back and flanks of the rabbits (4.1) with shears (4.3) so as to clear a surface of about 14 cm×14 cm; proceed with care in order to avoid all irritation. Verify skin condition so as to retain but six animals presenting healthy and clean-shaved skin.
5.1.2. […]
Primary cutaneous irritation must be evaluated around thirty minutes subsequent to removal of the dressing; a second evaluation is to take place 48 hours later, i.e. 72 hours after application of the product. […]

cicatrization of wounds = settings: normal animal, without zinc deficiency; Favier et al. 1980; cited from earlier work

CCOC(=O)c1ccc(N)cc1 [Benzocaine]
Class. (degree of allergenicity) (skin of Guinea Pig [1]; reading 24): II (9-28)
Number of animals with Note 0 (skin of Guinea Pig [1]; reading 24): 17
Number of animals with Note 1 (skin of Guinea Pig [1]; reading 24): 3
Number of animals with Note 2 (skin of Guinea Pig [1]; reading 24): 0
Number of animals with Note 3 (skin of Guinea Pig [1]; reading 24): 0
Percentage of animals having presented a reaction (skin of Guinea Pig [1]; reading 24): 15%
Class. (degree of allergenicity) (skin of Guinea Pig [1]; reading 48): II (9-28)
Number of animals with Note 0 (skin of Guinea Pig [1]; reading 48): 17
Number of animals with Note 1 (skin of Guinea Pig [1]; reading 48): 3
Number of animals with Note 2 (skin of Guinea Pig [1]; reading 48): 0
Number of animals with Note 3 (skin of Guinea Pig [1]; reading 48): 0
Percentage of animals having presented a reaction (skin of Guinea Pig [1]; reading 48): 15%

OCC(O)CS (stereo not shown) [Thioglycerol]
Class. (degree of allergenicity) (skin of Guinea Pig [1]; reading 24): III (29-64)
Number of animals with Note 0 (skin of Guinea Pig [1]; reading 24): 7
Number of animals with Note 1 (skin of Guinea Pig [1]; reading 24): 9
Number of animals with Note 2 (skin of Guinea Pig [1]; reading 24): 3
Number of animals with Note 3 (skin of Guinea Pig [1]; reading 24): 0
Percentage of animals having presented a reaction (skin of Guinea Pig [1]; reading 24): 63%
Class. (degree of allergenicity) (skin of Guinea Pig [1]; reading 48): III (29-64)
Number of animals with Note 0 (skin of Guinea Pig [1]; reading 48): 11
Number of animals with Note 1 (skin of Guinea Pig [1]; reading 48): 8
Number of animals with Note 2 (skin of Guinea Pig [1]; reading 48): 0
Number of animals with Note 3 (skin of Guinea Pig [1]; reading 48): 0
Percentage of animals having presented a reaction (skin of Guinea Pig [1]; reading 48): 45%

carboxymethylcysteine [CMC]
Inhibition of the lipidic synthesis ([2]; 10^-3 M): 24.5%
Inhibition of the lipidic synthesis ([2]; 10^-4 M): 5.9%

CCN(CC)CCNC(=O)c1ccc(N)cc1 [Procainamide]
Number of animals with Note 0 (skin of Guinea Pig [1]; reading 24): 6
Number of animals with Note 1 (skin of Guinea Pig [1]; reading 24): 5
Number of animals with Note 2 (skin of Guinea Pig [1]; reading 24): 9
Number of animals with Note 3 (skin of Guinea Pig [1]; reading 24): 0
Percentage of animals having presented a reaction (skin of Guinea Pig [1]; reading 24): 70%
Number of animals with Note 0 (skin of Guinea Pig [1]; reading 48): 6
Number of animals with Note 1 (skin of Guinea Pig [1]; reading 48): 5
Number of animals with Note 2 (skin of Guinea Pig [1]; reading 48): 9
Number of animals with Note 3 (skin of Guinea Pig [1]; reading 48): 0
Percentage of animals having presented a reaction (skin of Guinea Pig [1]; reading 48): 70%

N[C@@H](CS(=O)(=O)O)C(=O)[O-].N[C@@H](CS(=O)(=O)O)C(=O)[O-].O.O.[Zn+2] [CB 619, dihydrate of the zinc salt of L-cysteic acid]
Solubility in water: ~6 weight-percent by volume
pH of a 6% solution (pH of aqueous solution): about 6.30
Intrinsic Inhibition Power, inhibition diameter (Pityrosporum ovale 1363 [3]; 1 mg): 6 mm
Intrinsic Inhibition Power, inhibition diameter (Pityrosporum ovale 1363 [3]; 2 mg): 7 mm
Intrinsic Inhibition Power, inhibition diameter (Pityrosporum ovale 1363 [3]; 3 mg): 9 mm
Intrinsic Inhibition Power, inhibition diameter (Pityrosporum ovale 1363 [3]; 4 mg): 11 mm
Intrinsic Inhibition Power, inhibition diameter (Pityrosporum ovale 1363 [3]; 5 mg): 13 mm
Intrinsic Inhibition Power, inhibition diameter ([4]; 1 mg): 6 mm
Intrinsic Inhibition Power, inhibition diameter ([4]; 2 mg): 7 mm
Intrinsic Inhibition Power, inhibition diameter ([4]; 3 mg): 9 mm
Intrinsic Inhibition Power, inhibition diameter ([4]; 4 mg): 11 mm
Intrinsic Inhibition Power, inhibition diameter ([4]; 5 mg): 13 mm
Cell multiplication (human fibroblast cells; 1 and 5 microgram/ml): increases the 5 cell multiplication in accordance with the concentration
Significance of increase in cell multiplication (days) (human fibroblast cells; 1 microgram/ml): significant on the sixth day
Significance of increase in cell multiplication (days) (human fibroblast cells; 5 microgram/ml): on the fourth, sixth and eighth days
Cicatrization ([5]; 3% in a 2% carbopol gel): enhances cicatrization
Cicatrization ([5]; 10% in a 2% carbopol gel): no more active
Intrinsic Inhibition Power, inhibition diameter (Pityrosporum ovale 1363 [6]; concentration of 2%): 10 mm
Intrinsic Inhibition Power, inhibition diameter (Pityrosporum ovale 1363 [6]; saturated solution): 11 mm
Intrinsic Inhibition Power, inhibition diameter ([7]; concentration of 2%): 10 mm
Intrinsic Inhibition Power, inhibition diameter ([7]; saturated solution): 11 mm
LD 50 (Mouse; intraperitoneally): 100 ± 13 mg/kg
Signs at the toxic dosis (Mouse; mouse, toxic dosis): animals become isolated in their cage; also recorded: Their hair stands up and they move with difficulty; also recorded: No diarrhea was observed
LD 50 (Mouse; orally): 1650 ± 60 mg/kg
Allergenicity (sensibilization) (skin of Guinea Pig [8]): no allergenic properties
Inhibition of the lipidic synthesis ([2]; 10^-3 M): 41.8%
Antiseborrheic activity compared with carboxymethylcysteine ([2]; 10^-3 M, CB 619 versus CMC): the more active
Inhibition of the lipidic synthesis ([2]; 10^-4 M): 33.7%
Eye irritation (E.I.) (eye): under 2
Eye irritation classification (eye): very weakly irritant
Maximum eye irritation (eye): 5.83
Skin irritation classification (skin): non-irritant
Skin primary irritation index (SPI) (skin): 0.1666

Nc1ccc(N)cc1 [Diamine paraphenylene]
Class. (degree of allergenicity) (skin of Guinea Pig [1]; reading 24): V (81-100)
Number of animals with Note 0 (skin of Guinea Pig [1]; reading 24): 3
Number of animals with Note 1 (skin of Guinea Pig [1]; reading 24): 13
Number of animals with Note 2 (skin of Guinea Pig [1]; reading 24): 4
Number of animals with Note 3 (skin of Guinea Pig [1]; reading 24): 0
Percentage of animals having presented a reaction (skin of Guinea Pig [1]; reading 24): 85%
Class. (degree of allergenicity) (skin of Guinea Pig [1]; reading 48): IV (65-80)
Number of animals with Note 0 (skin of Guinea Pig [1]; reading 48): 4
Number of animals with Note 1 (skin of Guinea Pig [1]; reading 48): 12
Number of animals with Note 2 (skin of Guinea Pig [1]; reading 48): 4
Number of animals with Note 3 (skin of Guinea Pig [1]; reading 48): 0
Percentage of animals having presented a reaction (skin of Guinea Pig [1]; reading 48): 80%

[Zn] [zinc]
Cicatrization (cicatrization of wounds): does not accelerate the cicatrization
